From PubChem BioAssay (NCI)
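Exposure lasted 48 hours, with cells grown in 96-well plates and compounds tested at five concentrations. At the GI50, growth is halved. TGI denotes the concentration required for complete inhibition of growth.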

How the values were obtained:
Assay in all cases: NCI anticancer screen, dose series, 48 h
[1] = test system: 786-0 renal
[2] = test system: A498 renal
[3] = test system: BT-549 breast
[4] = test system: MALME-3M melanoma
[5] = test system: MCF7 breast
[6] = test system: MDA-MB-231 breast
[7] = test system: MOLT-4 leukemia
[8] = test system: NCI-H226 lung
[9] = test system: SK-MEL-28 melanoma
[10] = test system: SN12C renal
[11] = test system: HL-60(TB) leukemia

## O=C(/C=C/c1ccc(-c2ccccc2[N+](=O)[O-])o1)NCc1ccc(C(=O)NCCc2ccccc2)cc1
[1]
  TGI: > 100 µM
[2]
  TGI: > 100 µM
[3]
  TGI: > 100 µM
[4]
  TGI: > 100 µM
[5]
  TGI: > 100 µM
[6]
  TGI: > 100 µM
[7]
  TGI: > 100 µM
[8]
  TGI: > 100 µM
[9]
  TGI: > 100 µM
[10]
  TGI: > 100 µM

## COc1cc([C@@H]2c3cc4c(cc3[C@@H](NC(=O)c3ccc(N)cc3)C3COC(=O)[C@@H]32)OCO4)cc(OC)c1O (stereo partly drawn)
[1]
  TGI: 3.84 µM
[2]
  TGI: 11.8 µM
[11]
  TGI: 4.35 µM
[4]
  TGI: 19.8 µM
[7]
  TGI: 3.78 µM
[8]
  TGI: 6.91 µM
[9]
  TGI: 50.8 µM
[10]
  TGI: 4.54 µM

## COc1cc(C2C3=C(CCC3=O)Oc3cc4c(cc32)OCO4)cc(OC)c1OC (stereo not drawn)
[11]
  TGI: 0.596 µM
[4]
  TGI: > 100 µM
[9]
  TGI: > 100 µM
[10]
  TGI: > 100 µM

## O=[N+]([O-])c1cccc([N+](=O)[O-])c1S(=O)(=O)c1ccccc1
[1]
  TGI: 5.21 µM
[2]
  TGI: 36.1 µM
[3]
  TGI: 13.6 µM
[11]
  TGI: 7.48 µM
[4]
  TGI: 6.19 µM
[5]
  TGI: 43.1 µM
[6]
  TGI: 37.3 µM
[8]
  TGI: 36.8 µM
[9]
  TGI: 15.2 µM
[10]
  TGI: 12.3 µM

## O=c1[nH]c(=O)n(C2OC(COP(=O)(O)OP(=O)(O)O)C(O)C2O)cc1F (stereo not drawn)
[1]
  TGI: 7.09 µM
[2]
  TGI: > 50 µM
[11]
  TGI: > 50 µM
[4]
  TGI: > 50 µM
[7]
  TGI: > 50 µM
[8]
  TGI: 28.6 µM
[9]
  TGI: > 50 µM
[10]
  TGI: > 50 µM

## Cc1cc2ccccc2n1CC(=O)NCC(C)C
[1]
  TGI: > 100 µM
[3]
  TGI: > 100 µM
[11]
  TGI: > 100 µM
[4]
  TGI: > 100 µM
[5]
  TGI: > 100 µM
[6]
  TGI: > 100 µM
[7]
  TGI: > 100 µM
[8]
  TGI: > 100 µM
[9]
  TGI: > 100 µM
[10]
  TGI: > 100 µM

## COc1cccc(NC(=O)CSc2nnc(-c3ccc(N=Cc4ccc(Cl)cc4)cc3)o2)c1
[1]
  TGI: 57.5 µM
[11]
  TGI: 87.8 µM
[4]
  TGI: 39.3 µM
[7]
  TGI: 93.3 µM
[8]
  TGI: 43.4 µM
[9]
  TGI: 37.5 µM
[10]
  TGI: 43 µM

## OC1CCCC1C(O)(C(F)(F)F)C(F)(F)F (stereo not drawn)
[1]
  TGI: > 100 µM
[2]
  TGI: > 100 µM
[11]
  TGI: > 100 µM
[4]
  TGI: > 100 µM
[5]
  TGI: > 100 µM
[6]
  TGI: > 100 µM
[7]
  TGI: > 100 µM
[8]
  TGI: > 100 µM
[9]
  TGI: > 100 µM
[10]
  TGI: > 100 µM

## N#CCCC1C(C#N)C2CC1C1C3C=CC(C3)C21 (stereo not drawn)
[1]
  TGI: > 100 µM
[3]
  TGI: > 100 µM
[11]
  TGI: > 100 µM
[4]
  TGI: > 100 µM
[5]
  TGI: > 100 µM
[6]
  TGI: > 100 µM
[7]
  TGI: > 100 µM
[8]
  TGI: > 100 µM
[9]
  TGI: > 100 µM

## NC(Cc1cc(I)c(O)c(I)c1)C(=O)O (stereo not drawn)
[2]
  TGI: > 500 µM
[11]
  TGI: > 500 µM
[4]
  TGI: > 500 µM
[5]
  TGI: > 500 µM
[7]
  TGI: > 500 µM
[8]
  TGI: > 500 µM
[9]
  TGI: > 500 µM
[10]
  TGI: > 500 µM

## Cn1c(=O)c2c(-c3ccccc3)onc2n(C)c1=O
[1]
  TGI: 86.5 µM
[2]
  TGI: > 100 µM
[3]
  TGI: 45.2 µM
[4]
  TGI: > 100 µM
[5]
  TGI: > 100 µM
[6]
  TGI: > 100 µM
[7]
  TGI: 81.5 µM
[8]
  TGI: > 100 µM
[10]
  TGI: > 100 µM

## O=S1(=O)NNC(=NCc2ccc(Cl)cc2)c2ccccc21
[1]
  TGI: > 100 µM
[2]
  TGI: > 100 µM
[11]
  TGI: > 100 µM
[4]
  TGI: > 100 µM
[7]
  TGI: > 100 µM
[8]
  TGI: > 100 µM
[10]
  TGI: > 100 µM

## NC(N)=N/N=C/c1c(-c2ccc([N+](=O)[O-])cc2)nc2sccn12
[1]
  TGI: 3.07 µM
[2]
  TGI: 3.21 µM
[3]
  TGI: 3.44 µM
[11]
  TGI: 5.8 µM
[5]
  TGI: 2.62 µM
[6]
  TGI: 3.13 µM
[9]
  TGI: 3.74 µM
[10]
  TGI: 3.2 µM

## CC1=CC(O)C(O)C2(C)C1CC1OC(=O)C(O)C3C(C)C(O)C4(O)OCC13C42 (stereo not drawn)
[2]
  TGI: 72.1 µM
[11]
  TGI: 189 µM
[4]
  TGI: 464 µM
[5]
  TGI: 464 µM
[7]
  TGI: 65.6 µM
[8]
  TGI: 243 µM
[9]
  TGI: 502 µM
[10]
  TGI: > 625 µM

## c1ccc(CCN2CCCCCC2)nc1
[1]
  TGI: > 100 µM
[2]
  TGI: > 100 µM
[3]
  TGI: > 100 µM
[4]
  TGI: > 100 µM
[5]
  TGI: > 100 µM
[6]
  TGI: > 100 µM
[7]
  TGI: > 100 µM
[8]
  TGI: > 100 µM
[9]
  TGI: > 100 µM
[10]
  TGI: > 100 µM

## CS(=O)(=O)OCCN1CCC2(CC1)SSC1(CCN(CCOS(C)(=O)=O)CC1)S2
[1]
  TGI: > 100 µM
[2]
  TGI: 56.1 µM
[3]
  TGI: > 100 µM
[11]
  TGI: 59.7 µM
[4]
  TGI: 68.1 µM
[5]
  TGI: 44.9 µM
[6]
  TGI: > 100 µM
[7]
  TGI: > 100 µM
[9]
  TGI: > 100 µM
[10]
  TGI: > 100 µM

## COc1ccc(C2(c3ccc(OC)cc3)OC(=O)c3cccc4cccc2c34)cc1
[1]
  TGI: > 100 µM
[2]
  TGI: > 100 µM
[3]
  TGI: > 100 µM
[4]
  TGI: > 100 µM
[5]
  TGI: > 100 µM
[6]
  TGI: > 100 µM
[7]
  TGI: > 100 µM
[8]
  TGI: > 100 µM
[10]
  TGI: > 100 µM

## CC(C)(C)N=C1CC(C)(C)c2ccccc2C(=Nc2ccccc2)S1
[1]
  TGI: > 100 µM
[2]
  TGI: > 100 µM
[11]
  TGI: 36 µM
[4]
  TGI: 96.5 µM
[7]
  TGI: 69.2 µM
[8]
  TGI: > 100 µM
[9]
  TGI: > 100 µM
[10]
  TGI: > 100 µM

## Cc1c2c3cc(O)ccc3nc-2n(C)c2ccccc12
[1]
  TGI: 10.5 µM
[3]
  TGI: 8.52 µM
[11]
  TGI: 19.8 µM
[4]
  TGI: 3.44 µM
[5]
  TGI: 9.82 µM
[7]
  TGI: 3.32 µM
[8]
  TGI: 8.54 µM
[9]
  TGI: 5.97 µM
[10]
  TGI: 4.38 µM

## OC(c1ccc(Cl)cc1)(c1ccc(Cl)cc1)C(O)(c1ccc(Cl)cc1)c1ccc(Cl)cc1
[5]
  GI50: 3.27 µM
  TGI: > 100 µM
[7]
  GI50: 3.18 µM
  TGI: > 100 µM
[10]
  GI50: 3.06 µM
  TGI: > 100 µM

## COC(=O)c1sc(=S)sc1SCc1ccccc1CSc1sc(=S)sc1C(=O)OC
[1]
  TGI: > 100 µM
[2]
  TGI: > 100 µM
[3]
  TGI: > 100 µM
[4]
  TGI: > 100 µM
[5]
  TGI: > 100 µM
[6]
  TGI: > 100 µM
[7]
  TGI: > 100 µM
[8]
  TGI: > 100 µM
[9]
  TGI: > 100 µM
[10]
  TGI: > 100 µM

## COc1ccc(/C=C2\Cc3ccccc3C2=O)cc1OC
[1]
  TGI: > 100 µM
[2]
  TGI: > 100 µM
[4]
  TGI: > 100 µM
[7]
  TGI: > 100 µM
[9]
  TGI: > 100 µM
[10]
  TGI: > 100 µM

## C=CCC(CNC(=O)OCc1ccccc1)O[Si](C)(C)C(C)(C)C (stereo not drawn)
[1]
  TGI: 98.7 µM
[2]
  TGI: > 100 µM
[3]
  TGI: > 100 µM
[11]
  TGI: 51.9 µM
[5]
  TGI: 57.7 µM
[6]
  TGI: 37 µM
[7]
  TGI: 70.1 µM
[8]
  TGI: 85.8 µM
[9]
  TGI: > 100 µM
[10]
  TGI: > 100 µM

## CC(C)CCC[C@@H](C)[C@H]1CC[C@H]2[C@@H]3CC=C4C[C@@H](OC(=O)c5cccc6c(=O)c7ccccc7[nH]c56)CC[C@]4(C)[C@H]3CC[C@]12C
[1]
  TGI: > 75 µM
[2]
  TGI: > 75 µM
[3]
  TGI: > 75 µM
[4]
  TGI: > 75 µM
[5]
  TGI: > 75 µM
[6]
  TGI: > 75 µM
[7]
  TGI: > 75 µM
[8]
  TGI: > 75 µM
[9]
  TGI: > 75 µM
[10]
  TGI: > 75 µM

## COC(=O)[C@H](C)N1C(=O)N[C@@H](C(C)C)C1=O
[1]
  TGI: > 100 µM
[3]
  TGI: > 100 µM
[4]
  TGI: > 100 µM
[5]
  TGI: > 100 µM
[6]
  TGI: > 100 µM
[7]
  TGI: > 100 µM
[8]
  TGI: > 100 µM
[9]
  TGI: > 100 µM
[10]
  TGI: > 100 µM
